Experimental data reported in US20060198882A1, “Stable liposomes or micelles comprising a sphinolipid and a peg-lipopolymer” (priority 2003, published 2006).
Where “and” joins values, the source holds several entries; their conditions need not be identical. Equal entries are not always repeated. Where two headings read alike, the source gives them in different places.

Legend:
[1] = Partition in the two phases of the Dole system; format: physicochemical
Protocol: The distribution of the C18 sphingosine-based ceramides with different acyl chain lengths and of DMS between the polar phase and respectively less polar phase (as defined below) of the Dole two phase system was determined. […] The different ceramides included: short (C2 Cer and C4 Cer), medium (C6 Cer and C8 Cer), long (C16 Cer). […] In: Liposome Technology 2nd Edn., G Gregoriadis (Ed.) CRC Press, Boca Raton, 1993, vol. 1, pp: 527-616]. The amount of each of the lipids used in each of the two phases was measured by thin-layer chromatography (TLC). For ceramide quantification TLC was developed in a solvent system containing chloroform/methanol (95:5 v/v). For DMS quantification TLC was developed in a solvent system containing chloroform/methanol/ammonia (89/9/2 v/v). Further, the TLC plate was sprayed with Copper sulfate reagent composed of 100 g anhydrous copper sulfate containing 80 ml of phosphoric acid (85%), %) dissolved in 600 ml of DDW. Copper sulphate reagent was applied to the plates by spraying, then heated and lipids appeared as dark brown spot. […] Quantity of ceramides in each phase was calculated from a standard curve of appropriate ceramide. […] (1993)Supra]. The distribution between the two Dole system phases was determined by the equation (as exemplified for ceramide): [formula] [formula] Where Kp denotes the partition coefficient of a given lipid or amphiphile referred to in the equation as lipid; Cer denotes ceramide; up is an abbreviation for the heptane rich low polarity upper phase and lp is an abbreviation for the polar isopropanol water rich lower phase.

[2] = Surface-pressure area isotherms; format: physicochemical; conditions: for minimal area per molecule: constant pressure of 20 mN/m; for collapse point pressure of monolayer: pure water sub-phase; for Area/molecule: table, monolayer on pure water sub-phase
Protocol: The tested ceramides (C2 Cer, C4 Cer, C6 Cer, C8 Cer, C16 Cer) were dried in vacuum overnight, weighted and dissolved in hexane/isopropanol (3:2 vol.) to make the following stock solutions.
The surface-pressure/area isotherms were obtained on pure water sub-phase (similar isotherms were obtained on 140 mM NaCl). Barrier speed during compression was […] for all monolayers.
The minimal area per molecule of different ceramides (C2 Cer, C4 Cer, C6 Cer, C8 Cer, C16 Cer) was calculated at the constant pressure of 20 mN/m. […] The area per molecule of C2 Cer, C4 Cer, C8 Cer, C16 Cer was about 38, 46, 45.5, and 37.5^2, respectively.

[3] = system: C-26; assay: Methylene blue assay of cell survival; format: cell-based, human; conditions: Table 8B
Text: (§1) Several tumor cell lines in monolayers were used. A human ovarian carcinoma cell line (OV-1063), established at the Hadassah University Hospital, a human colon carcinoma cell line (C-26), a DOX-sensitive M-109S ([…]), and a DOX-resistant, M-109R ([…]). All cell lines were maintained in RPMI-1640 medium supplemented with 10% FCS, antibiotics, and glutamine. All culture medium components were purchased from Biological Industries (Beit-HaEmek, Israel). Both cell lines were maintained at 37° C. in a water-jacketed CO2 incubator.
(§2) a) Various ceramides (Cer) with different chain lengths: short (C2 Cer and C4 Cer), medium (C6 Cer and C8 Cer), and long (C16 Cer) were first dissolved in 100% ethanol to a concentration of 30 mM, added to a serum-containing medium and mixed immediately. The final ethanol concentration in the serum-containing culture medium ranged from 0.1-0.5% (depending on the type of ceramide (Cer)).
(§3) b) Various ceramides with different chain lengths: short C2 Cer, medium C6 Cer, and long C16 Cer were dissolved in ethanol:dodecane (98:2 v/v) to a concentration of 30 mM and added to serum-free medium and mixed. Final concentrations of the ethanol and dodecane in the culture medium containing 10% of FCS ranged from 0.098-0.49% and 0.002-0.01%, respectively, depending on the type of ceramide.
(§4) The cytotoxicity of the examined assemblies comprising ceramide was tested by the methylene blue ([…]) staining assay [Gorodetsky, R. et al. Int. J. Cancer. 75:635-642 (1998)]. A known number of exponentially growing cells in 200 μL of medium were plated in 96-microwell, flat-bottomed plates. For each of the variants tested, 4 wells were used. Following 24 hr of incubation in culture, 20 μL of different concentrations of the examined assemblies were added to each well containing untreated cells.
(§5) The following controls were used: Citrate buffer (5 mM, pH 7); Ethanol solution in medium RPMI 1640 (final concentration of 0.1%); A solution RPMI 1640 of ethanol:dodecane (98:2 […]) at a final concentration of 0.1% and 0.2%, respectively.
(§6) Cells were exposed to assemblies for 4, 24, 72 or 96 hr. At the end of assembly exposure, for a fixed time interval, the drug-treated cells, as well as parallel control cells, were washed, and the incubation continued in fresh medium until termination of the experiment. Following 72 hr or 96 hr of growth, cells were fixed by adding 50 μL of 2.5% glutaraldehyde to each well for 15 min. Fixed cells were rinsed 10 times with deionized water and once with borate buffer (0.1 M, pH 8.5), dried, and stained with MB (100 μL of 1% solution in 0.1 M borate buffer, pH 8.5) for 1 h at room temperature (r.t.). Stained cells were rinsed thoroughly with de-ionized water to remove any non-cell-bound dye and then dried. The MB bound to the fixed cells was extracted by incubation at 37° C. with 200 μL of 0.1 N HCl for 1 h, and the net optical density of the dye in each well was determined by a plate spectrophotometer (Labsystems Multyskan Bichromatic, Finland) at 620 nm.

[4] = system: OV-1063; assay: Methylene blue assay of cell survival; format: cell-based, human; conditions: Table 8B
Text: as §1, §2, §3, §4, §5, §6

[5] = system: C-26 cells; assay: Apoptosis by chromatin morphology (Hoechst-33342, confocal microscopy); format: cell-based, human; conditions: 24 hr
Protocol: (§7) a) The morphology of chromatin was assessed by staining with Hoechst-33342 obtained from Calbiochem (La Jolla, Calif.), a molecule which when reside in the minor groove of the DNA strand enhance its fluorescence intensity and, therefore, it is preferentially stains dsDNA [Jouvet, P. Mol. Biol. Cell 11:1919-1932 (2000)]. Briefly, samples containing 5*10^5 cells were cultured on 6-well plates covered with a glass coverslip. After treatment of cells with IC50 of drugs, cells were washed with PBS and fixated with 4% formaldehyde. After that cells were stained with Hoechst-33342 (5 μg/ml) and washed. Thereafter, glass coverslip was placed on a glass slide and photographed using a CLMS.

[6] = system: OV-1063 cells; assay: as above; format: cell-based, human; conditions: 24 hr
Protocol: as §7

[7] = Partition in the two phases of the Dole system; format: physicochemical; remark: listed apart in the source
[8] = read-out: IC50 (μM), 24 hr C-26
[9] = read-out: IC50 (μM), 72 hr C-26
[10] = read-out: IC50 (μM), 4 hr OV-1063
[11] = read-out: IC50 (μM), 24 hr OV-1063
[12] = read-out: IC50 (μM), 72 hr OV-1063

Row | Molecule | Kp (heptane rich/isopropanol and water rich partition coefficient) [1] | % of lipid in heptane-rich upper phase ([1]; Dole two phase system) | % of lipid in isopropanol/water lower phase ([1]; Dole two phase system) | monolayer stability [2] | minimal area per molecule [2] | collapse point pressure of monolayer [2] | Area/molecule [2] | IC50 ([3]; read-out: IC50 (μM), 4 hr C-26) | IC50 [3, 8] | IC50 [3, 9] | IC50 [4, 10] | IC50 [4, 11] | IC50 [4, 12] | Apoptotic C-26 cells (% of total cell number), 24 hr [5] | Apoptotic OV-1063 cells (% of total cell number), 24 hr [6] | Liposome formation (being a liposome forming lipid by itself) [7] | Kp (heptane rich/isopropanol and water rich partition coefficient) ([1]; Dole two phase system)
1 | CCCCCCCCCCCCC/C=C/[C@@H](O)[C@H](CO)NC(=O)CCC [C4Cer, N-tetranoyl-D-erythro-sphingosine] | 0.92 | 32% and 31.5% | 68.5% | almost as stable as all the others | ~46 Å^2 | about 42 mN/m | 46 A^2 | 15.5 ± 3.5 µM | 6.25 ± 0.35 µM | 3.75 ± 0.35 µM | 10 ± 2.7 µM | 5.9 ± 0.14 µM | 3.95 ± 0.6 µM | 10% | 58% | No | –
2 | CCCCCCCCCCCCC/C=C/[C@@H](O)[C@H](CO)NC(=O)CCCCCCC [C8Cer, N-octanoyl-D-erythro-sphingosine] | 5.25 | 72% | 28% | – | ~45.5 Å^2 | about 42 mN/m | 45.5 A^2 | > 40 µM | 23 ± 1.4 µM | 21.5 ± 2.1 µM | > 40 µM | 23.7 ± 1 µM | 19 ± 1.4 µM | – | – | No | –
3 | Egg phosphatidylcholine [EPC] | – | 15.2% | 84.8% | – | – | – | – | – | – | – | – | – | – | – | – | Yes | 0.35
4 | hydrogenated soybean phosphatidylcholine [HSPC] | – | 36% | 64% | – | – | – | – | – | – | – | – | – | – | – | – | Yes | 1.13
